The source of these data is patent publication US9133181B2, “Substituted 6-(4-hydroxy-phenyl)-1H-pyrazolo[3,4-b]pyridine derivatives as kinase inhibitors” (SANOFI, priority 2012, dated 2015).

Molecules are shown by their SMILES.

For this test, the target named is T1, human full-length recombinant PKC βII (Homo sapiens, UniProt P05771).
T1 construct: Active human full-length recombinant PKC βII; purchased Invitrogen GmbH, Darmstadt, Germany
T1 sequence (P05771 1-673 isoform P05771-2): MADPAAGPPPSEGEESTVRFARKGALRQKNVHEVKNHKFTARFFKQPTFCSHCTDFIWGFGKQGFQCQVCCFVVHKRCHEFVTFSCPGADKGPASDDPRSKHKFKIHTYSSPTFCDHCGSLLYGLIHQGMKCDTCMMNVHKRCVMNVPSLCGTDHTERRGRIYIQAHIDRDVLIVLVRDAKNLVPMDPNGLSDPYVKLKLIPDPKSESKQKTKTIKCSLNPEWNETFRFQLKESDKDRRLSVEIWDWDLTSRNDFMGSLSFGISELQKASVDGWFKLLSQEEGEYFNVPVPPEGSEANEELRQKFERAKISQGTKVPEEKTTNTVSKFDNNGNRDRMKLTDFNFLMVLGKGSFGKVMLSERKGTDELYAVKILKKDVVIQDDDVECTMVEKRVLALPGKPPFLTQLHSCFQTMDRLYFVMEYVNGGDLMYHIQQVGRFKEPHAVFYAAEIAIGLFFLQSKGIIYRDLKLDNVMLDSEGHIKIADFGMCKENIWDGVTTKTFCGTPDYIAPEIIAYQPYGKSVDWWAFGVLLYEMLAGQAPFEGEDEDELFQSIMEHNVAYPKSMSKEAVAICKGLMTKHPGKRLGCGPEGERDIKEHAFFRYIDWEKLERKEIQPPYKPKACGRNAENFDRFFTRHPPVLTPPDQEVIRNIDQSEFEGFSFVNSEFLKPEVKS
Kind of test: Determination of PKC βII inhibition (Caliper mobility shift kinase assay). It counts as biochemical. As to conditions: final compound concentration 1.14 μM (±0.15 μM); 60 min incubation at 32° C. Put shortly: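 Compound was tested at a final 1.14 µM (±0.15 µM), with % inhibition derived from the product/(substrate+product) peak ratio on a Caliper mobility-shift read-out. Full-length PKC βII was activated by CaCl2, PS and DAG in pH 7.4 Hepes/MgCl2. Peptide and ATP were at 3 µM and 120 µM in the added mix. Incubation was 60 min at 32 °C.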
In the case of `Cc1n[nH]c2nc(-c3ccc(O)cc3F)cc(CN3CC(C)(C)OCC3(C)C)c12` [Example 56, 3-Fluoro-4-[3-methyl-4-(2,2,5,5-tetramethyl-morpholin-4-ylmethyl)-1H-pyrazolo[3,4-b]pyridin-6-yl]-phenol], the inhibition at 1.14 µM stood at 85%.
Same read-out and setting: with `CCC1CNC(C)(C)CN1Cc1cc(-c2ccc(O)cc2)nc2[nH]nc(C)c12` (stereo not drawn) [Example 53, 4-[4-(2-Ethyl-5,5-dimethyl-piperazin-1-ylmethyl)-3-methyl-1H-pyrazolo[3,4-b]pyridin-6-yl]-phenol] the figure was 99%; with `Cc1n[nH]c2nc(-c3ccc(O)cc3F)cc(CN3CC(C)NCC3C(F)(F)F)c12` (stereo not drawn) [Example 19, 3-Fluoro-4-[3-methyl-4-(5-methyl-2-trifluoromethyl-piperazin-1-ylmethyl)-1H-pyrazolo[3,4-b]pyridin-6-yl]-phenol], 99%.
Still for that read-out and setting: with `Cc1n[nH]c2nc(-c3ccc(O)cc3)cc(CN3CCNCC34CC4)c12` [Example 40, 4-[4-(4,7-Diaza-spiro[2.5]oct-4-ylmethyl)-3-methyl-1H-pyrazolo[3,4-b]pyridin-6-yl]-phenol] the figure was 97%; with `Cc1n[nH]c2nc(-c3ccc(O)cc3F)cc(CN3CC(C)(C)N(CCC4CCOCC4)CC3(C)C)c12` [Example 68, 3-Fluoro-4-(3-methyl-4-{2,2,5,5-tetramethyl-4-[2-(tetrahydro-pyran-4-yl)-ethyl]-piperazin-1-ylmethyl}-1H-pyrazolo[3,4-b]pyridin-6-yl)-phenol], 101%.
Regarding `CC[C@@H]1CNC(C)(C)CN1Cc1cc(-c2ccc(O)cc2)nc2[nH]nc(C)c12` [Example 146, 4-[4-((R)-2-Ethyl-5,5-dimethyl-piperazin-1-ylmethyl)-3-methyl-1H-pyrazolo[3,4-b]pyridin-6-yl]-phenol], the inhibition at 1.14 µM amounted to 99%.
On the same count and under the same terms, with `Cc1n[nH]c2nc(-c3ccc(O)cc3F)cc(CN3CC4(CCCC4)N(C)CC3(C)C)c12` [Example 71, 3-Fluoro-4-[3-methyl-4-(6,8,8-trimethyl-6,9-diaza-spiro[4.5]dec-9-ylmethyl)-1H-pyrazolo[3,4-b]pyridin-6-yl]-phenol] the figure was 98%.
Regarding `Cc1n[nH]c2nc(-c3ccc(O)cc3F)cc(CN3CC(C)(C)N(CCO)CC3(C)C)c12` [Example 72, 3-Fluoro-4-{4-[4-(2-hydroxy-ethyl)-2,2,5,5-tetramethyl-piperazin-1-ylmethyl]-3-methyl-1H-pyrazolo[3,4-b]pyridin-6-yl}-phenol], the inhibition at 1.14 µM stood at 100%.
Still for that read-out and setting: with `Cc1n[nH]c2nc(-c3ccc(O)cc3F)cc(CN3CC(C)(C)N(C[C@H]4COC(C)(C)O4)CC3(C)C)c12` [Example 69, 4-{4-[4-((S)-2,2-Dimethyl-[1,3]dioxolan-4-ylmethyl)-2,2,5,5-tetramethyl-piperazin-1-ylmethyl]-3-methyl-1H-pyrazolo[3,4-b]pyridin-6-yl}-3-fluoro-phenol] the figure was 92%; with `COCCC(=O)N1CC(C)(C)N(Cc2cc(-c3ccc(O)cc3F)nc3[nH]nc(C)c23)CC1(C)C` [Example 76, 1-{4-[6-(2-Fluoro-4-hydroxy-phenyl)-3-methyl-1H-pyrazolo[3,4-b]pyridin-4-ylmethyl]-2,2,5,5-tetramethyl-piperazin-1-yl}-3-methoxy-propan-1-one], 95%.
Regarding `COCC(=O)N1CCCN(Cc2cc(-c3ccc(O)cc3F)nc3[nH]nc(C)c23)CC1C` (stereo not drawn) [Example 79, 1-{4-[6-(2-Fluoro-4-hydroxy-phenyl)-3-methyl-1H-pyrazolo[3,4-b]pyridin-4-ylmethyl]-2-methyl-[1,4]diazepan-1-yl}-2-methoxy-ethanone], the inhibition at 1.14 µM stood at 65%.
Same read-out and setting: with `Cc1n[nH]c2nc(-c3ccc(O)cc3F)cc(CN3CC(C)NCC34CCCC4)c12` (stereo not drawn) [Example 16, 3-Fluoro-4-[3-methyl-4-(8-methyl-6,9-diaza-spiro[4.5]dec-6-ylmethyl)-1H-pyrazolo[3,4-b]pyridin-6-yl]-phenol] the figure was 99%.
Same read-out and setting: the value for `Cc1n[nH]c2nc(-c3ccc(O)cc3)cc(CN3CCNC[C@@H]3c3ccc(C(F)(F)F)cc3)c12` [Example 113, 4-{3-Methyl-4-[(S)-2-(4-trifluoromethyl-phenyl)-piperazin-1-ylmethyl]-1H-pyrazolo[3,4-b]pyridin-6-yl}-phenol] was 81%.
Consider `Cc1n[nH]c2nc(-c3ccc(O)cc3)cc(CN3C[C@@H](C)NC[C@@H]3c3ccccc3)c12` [Example 111, 4-[3-Methyl-4-((2S,5R)-5-methyl-2-phenyl-piperazin-1-ylmethyl)-1H-pyrazolo[3,4-b]pyridin-6-yl]-phenol], for which the “% Inhibition” value is on record as 88%.
With `CCC1(C)CN(Cc2cc(-c3ccc(O)cc3)nc3[nH]nc(C)c23)C(C)(C)CN1` (stereo not drawn) [Example 57, 4-[4-(5-Ethyl-2,2,5-trimethyl-piperazin-1-ylmethyl)-3-methyl-1H-pyrazolo[3,4-b]pyridin-6-yl]-phenol], the inhibition at 1.14 µM was determined as 93%.
In the case of `CCC1CNC(C)(C)CN1Cc1cc(-c2ccc(O)cc2F)nc2[nH]nc(C)c12` (stereo not drawn) [Example 39, 4-[4-(2-Ethyl-5,5-dimethyl-piperazin-1-ylmethyl)-3-methyl-1H-pyrazolo[3,4-b]pyridin-6-yl]-3-fluoro-phenol], the inhibition at 1.14 µM is 100%.
Still for that read-out and setting: with `Cc1n[nH]c2nc(-c3ccc(O)cc3F)cc(CN3CC(C)(C)N(C[C@H](O)CO)CC3(C)C)c12` [Example 73, (S)-3-{4-[6-(2-Fluoro-4-hydroxy-phenyl)-3-methyl-1H-pyrazolo[3,4-b]pyridin-4-ylmethyl]-2,2,5,5-tetramethyl-piperazin-1-yl}-propane-1,2-diol] the figure was 97%; with `CC[C@]1(C)CN(Cc2cc(-c3ccc(O)cc3F)nc3[nH]nc(C)c23)C(C)(C)CN1` [Example 135, 4-[4-((R)-5-Ethyl-2,2,5-trimethyl-piperazin-1-ylmethyl)-3-methyl-1H-pyrazolo[3,4-b]pyridin-6-yl]-3-fluoro-phenol], 106%.
In the case of `CCC1(CC)CNCCN1Cc1cc(-c2ccc(O)cc2F)nc2[nH]nc(C)c12` [Example 18, 4-[4-(2,2-Diethyl-piperazin-1-ylmethyl)-3-methyl-1H-pyrazolo[3,4-b]pyridin-6-yl]-3-fluoro-phenol], the inhibition at 1.14 µM came to 98%.
For the molecule `Cc1n[nH]c2nc(-c3ccc(O)cc3F)cc(CN3CCCC(C)(N)C3)c12` (stereo not drawn) [Example 24, 4-[4-(3-Amino-3-methyl-piperidin-1-ylmethyl)-3-methyl-1H-pyrazolo[3,4-b]pyridin-6-yl]-3-fluoro-phenol], the inhibition at 1.14 µM was 94%.
Take `Cc1n[nH]c2nc(-c3ccc(O)cc3F)cc(CN3C[C@@H](C(C)C)NCC3(C)C)c12` [Example 130, 3-Fluoro-4-[4-((R)-5-isopropyl-2,2-dimethyl-piperazin-1-ylmethyl)-3-methyl-1H-pyrazolo[3,4-b]pyridin-6-yl]-phenol]: the inhibition at 1.14 µM was determined as 98%.
As to `Cc1n[nH]c2nc(-c3ccc(O)cc3F)cc(CN3CC4(CCCC4)NC[C@H]3C)c12` [Example 138, 3-Fluoro-4-[3-methyl-4-((R)-8-methyl-6,9-diaza-spiro[4.5]dec-9-ylmethyl)-1H-pyrazolo[3,4-b]pyridin-6-yl]-phenol], the inhibition at 1.14 µM was found to be 98%.
Same read-out and setting: the value for `Cc1n[nH]c2nc(-c3ccc(O)cc3F)cc(CN3CC(C)(C)N(CCC(F)(F)F)CC3(C)C)c12` [Example 65, 3-Fluoro-4-{3-methyl-4-[2,2,5,5-tetramethyl-4-(3,3,3-trifluoro-propyl)-piperazin-1-ylmethyl]-1H-pyrazolo[3,4-b]pyridin-6-yl}-phenol] was 88%.
Same read-out and setting: the value for `CC[C@H]1CNC(C)(C)CN1Cc1cc(-c2ccc(O)cc2)nc2[nH]nc(C)c12` [Example 145, 4-[4-((S)-2-Ethyl-5,5-dimethyl-piperazin-1-ylmethyl)-3-methyl-1H-pyrazolo[3,4-b]pyridin-6-yl]-phenol] was 95%; that for `Cc1n[nH]c2nc(-c3ccc(O)cc3F)cc(CN3CCNCC3c3cccc(F)c3)c12` (stereo not drawn) [Example 6, 3-Fluoro-4-{4-[2-(3-fluoro-phenyl)-piperazin-1-ylmethyl]-3-methyl-1H-pyrazolo[3,4-b]pyridin-6-yl}-phenol] was 91%.
Same read-out and setting: with `COC(=O)CNC(=O)N1CC(C)(C)N(Cc2cc(-c3ccc(O)cc3)nc3[nH]nc(C)c23)CC1(C)C` [Example 87, ({4-[6-(4-Hyd roxy-phenyl)-3-methyl-1H-pyrazolo[3,4-b]pyridin-4-ylmethyl]-2,2,5,5-tetramethyl-piperazine-1-carbonyl}-amino)-acetic acid methyl ester] the figure was 92%; with `Cc1n[nH]c2nc(-c3ccc(O)cc3)cc(CN3CC(C)N(CC4CCCO4)CC3(C)C)c12` (stereo not drawn) [Example 62, 4-{3-Methyl-4-[2,2,5-trimethyl-4-(tetrahydro-furan-2-ylmethyl)-piperazin-1-ylmethyl]-1H-pyrazolo[3,4-b]pyridin-6-yl}-phenol], 99%; with `Cc1n[nH]c2nc(-c3ccc(O)cc3F)cc(CN3C[C@H](C)NC[C@@H]3C(F)(F)F)c12` [Example 151, 3-Fluoro-4-[3-methyl-4-((2R,5S)-5-methyl-2-trifluoromethyl-piperazin-1-ylmethyl)-1H-pyrazolo[3,4-b]pyridin-6-yl]-phenol], 90%.
Take `Cc1n[nH]c2nc(-c3ccc(O)cc3F)cc(CN3CCNC[C@@H]3c3ccc(C(C)C)cc3)c12` [Example 101, 3-Fluoro-4-{4-[(S)-2-(4-isopropyl-phenyl)-piperazin-1-ylmethyl]-3-methyl-1H-pyrazolo[3,4-b]pyridin-6-yl}-phenol]: the inhibition at 1.14 µM is 52%.
On the same count and under the same terms, the value for `CNCCN1CC(C)(C)N(Cc2cc(-c3ccc(O)cc3)nc3[nH]nc(C)c23)CC1(C)C` [Example 85, 4-{3-Methyl-4-[2,2,5,5-tetramethyl-4-(2-methylamino-ethyl)-piperazin-1-ylmethyl]-1H-pyrazolo[3,4-b]pyridin-6-yl}-phenol] was 101%.

What is called inhibition is the change of the read-out against control, counted positive when it falls. What is called % Inhibition is the share of the control response that was lost under treatment.
